From patent publication US9622474B2, “N-(substituted)-5-fluoro-4-imino-3-methyl-2-oxo-3,4-dihydropyrimidine-1(2H)-carboxylate derivatives” (Adama Makhteshim Ltd., priority 2012, dated 2017)

What was measured:
[1] = system: Mycosphaerella graminicola; Anamorph: Septoria tritici; Bayer Code SEPTTR; test: Fungicidal activity vs. leaf blotch of wheat (SEPTTR), three-day curative (3DC); format: in vivo, Septoria tritici on wheat plants (variety Yuma); details: rating of % disease control vs untreated, inoculated plants
Experimental: (§1) Example A: Evaluation of Fungicidal Activity: Leaf Blotch of Wheat (Mycosphaerella graminicola; Anamorph: Septoria tritici; Bayer Code SEPTTR):
(§2) Wheat plants (variety Yuma) were grown from seed in a greenhouse in 50% mineral soil/50% soil-less Metro mix until the first leaf was fully emerged, with 7-10 seedlings per pot. These plants were inoculated with an aqueous spore suspension of Septoria tritici either prior to or after fungicide treatments. After inoculation the plants were kept in 100% relative humidity (one day in a dark dew chamber followed by two to three days in a lighted dew chamber) to permit spores to germinate and infect the leaf. The plants were then transferred to a greenhouse for disease to develop.
(§3) The following table presents the activity of typical compounds of the present disclosure when evaluated in these experiments. The effectiveness of the test compounds in controlling disease was determined by assessing the severity of disease on treated plants, then converting the severity to percent control based on the level of disease on untreated, inoculated plants.

[2] = system: Mycosphaerella graminicola; Anamorph: Septoria tritici; Bayer Code SEPTTR; test: Fungicidal activity vs. leaf blotch of wheat (SEPTTR), one-day protectant (1DP); format: in vivo, Septoria tritici on wheat plants (variety Yuma); details: rating of % disease control vs untreated, inoculated plants
Experimental: as §1, §2, §3

| SMILES | SEPTTR 100 PPM 3DC [1] | melting point [°C] | SEPTTR 100 PPM 1DP [2] |
| --- | --- | --- | --- |
| COc1ccc(OC(=O)n2cc(F)c(=N)n(C)c2=O)cc1 [Compound 1, 4-methoxyphenyl 5-fluoro-4-imino-3-methyl-2-oxo-3,4-dihydropyrimidine-1(2H)-carboxylate] | A (76-100) | 135.6 to 137.1 | A (76-100) |
| COc1ccc(OC(=O)/N=c2/c(F)cn(C(=O)Oc3ccc(OC)cc3)c(=O)n2C)cc1 [Compound 2] | A (76-100) | 161.8 to 165.6 | A (76-100) |
| Cc1ccc(OC(=O)n2cc(F)c(=N)n(C)c2=O)cc1 [Compound 3] | A (76-100) | 109 to 110.2 | A (76-100) |
| Cn1c(=N)c(F)cn(C(=O)Oc2ccccc2)c1=O [Compound 4] | A (76-100) | 86.4 to 87.6 | A (76-100) |
